According to US7049344B2 (Wilex Biotechnology GmbH, priority 2000, dated 2006):
pKi: −log10 of the molar value. Where a name gives a salt, the structure may show the parent alone. Each block holds one compound with its values, some of them ahead of it.

Assays:
[1] = molecular target: T1, uPA (sc-urokinase) (Homo sapiens, UniProt P00749); experiment: In-vitro inhibition of urokinase, chromogenic substrate, Dixon Ki; type: biochemical; settings: 25° C, pH 8.0; average of at least three determinations; read-out: K1 uPA
T1 construct: purchased Ribosepharm GmbH, Haan, Germany
Description: (§1) The uPA inhibitor activity was determined by incubating 200 μl of Tris buffer (0.05 mol/l, containing the inhibitor, 0.154 mol/l NaCl, 5% ethanol, pH 8.0), 25 μl of substrate (Pefachrome UK or BZ-β-Ala-Gly-Arg-pNA in H2O; Pentapharm Ltd, Basle, Switzerland) and 50 μl of sc-urokinase (Ribosepharm GmbH, Haan, Germany) or another corresponding protease at 25° C. After 3 min, the reaction was interrupted by adding 25 μl of acetic acid (50%) and absorbance at 405 nm was determined by means of a microplate reader (MR 5000, Dynatech, Denkendorf, Germany). The Ki values were determined by linear regression according to Dixon by means of a computer program. The Ki values are the average of at least three determinations, and the standard deviation was below 25%.

[2] = molecular target: T2, Trypsin (UniProt P00760); experiment: In-vitro protease inhibition, chromogenic substrate, Dixon Ki; type: biochemical; settings: 25° C, pH 8.0; read-out: K1 Trypsin
T2 sequence (P00760 1-246): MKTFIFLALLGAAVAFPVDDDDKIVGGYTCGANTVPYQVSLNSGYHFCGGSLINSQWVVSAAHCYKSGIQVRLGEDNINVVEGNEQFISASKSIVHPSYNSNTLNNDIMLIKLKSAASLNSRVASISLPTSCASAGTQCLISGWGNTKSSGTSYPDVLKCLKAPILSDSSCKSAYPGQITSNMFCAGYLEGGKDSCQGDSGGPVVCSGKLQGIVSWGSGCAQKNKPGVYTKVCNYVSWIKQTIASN
Description: as §1

[3] = molecular target: Plasmin (Homo sapiens, UniProt P00747); experiment: as above; type: biochemical; settings: 25° C, pH 8.0; read-out: K1 Plasmin
Plasmin, sequence (P00747 581-810 limits assumed, species assumed): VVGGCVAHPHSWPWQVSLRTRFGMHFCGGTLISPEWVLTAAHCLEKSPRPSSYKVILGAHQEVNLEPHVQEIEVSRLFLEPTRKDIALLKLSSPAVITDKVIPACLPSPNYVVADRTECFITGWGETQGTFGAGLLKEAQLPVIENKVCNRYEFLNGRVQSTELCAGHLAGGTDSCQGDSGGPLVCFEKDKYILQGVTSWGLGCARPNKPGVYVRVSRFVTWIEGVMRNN
Plasmin, sequence (P00747 97-580 partner limits assumed, species assumed): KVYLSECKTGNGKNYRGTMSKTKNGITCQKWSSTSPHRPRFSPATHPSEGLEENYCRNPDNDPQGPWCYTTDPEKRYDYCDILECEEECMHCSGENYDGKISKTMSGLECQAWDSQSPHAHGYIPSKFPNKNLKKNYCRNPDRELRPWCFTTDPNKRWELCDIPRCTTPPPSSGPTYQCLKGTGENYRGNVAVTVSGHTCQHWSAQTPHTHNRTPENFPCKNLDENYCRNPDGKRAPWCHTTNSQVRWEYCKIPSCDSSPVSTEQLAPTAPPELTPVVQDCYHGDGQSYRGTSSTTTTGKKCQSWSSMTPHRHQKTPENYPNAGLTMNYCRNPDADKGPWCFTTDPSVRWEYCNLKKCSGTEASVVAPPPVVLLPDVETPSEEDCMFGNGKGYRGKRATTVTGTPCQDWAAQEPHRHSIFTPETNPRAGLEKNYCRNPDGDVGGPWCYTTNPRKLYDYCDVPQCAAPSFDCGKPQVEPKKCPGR
Description: as §1

[4] = molecular target: FXA (UniProt P00743); experiment: as above; type: biochemical; settings: 25° C, pH 8.0; read-out: K1 FXA
Description: as §1

[5] = molecular target: Thrombin (UniProt P00735); experiment: as above; type: biochemical; settings: 25° C, pH 8.0; read-out: K1 Thrombin
Description: as §1

[6] = tested on: rat breast adenocarcinoma cells; settings: after i.v. inoculation of rat breast adenocarcinoma cells; cited from earlier work
[7] = tested on: mouse breast cancer; settings: cited from earlier work
[8] = tested on: rat prostate cancer; settings: syngeneic model of rat prostate cancer; cited from earlier work
[9] = tested on: DU145 tumors (a prostate adenocarcinoma cell line); settings: SCID mice, oral, daily dose of 125 to 250 mg/kg/day; cited from earlier work

pKi [1]: 4.29 | pKi [2]: < 3.00 | pKi [3]: < 3.00 | pKi [4]: < 3.00 | pKi [5]: < 3.00
Compound: N=C(N)Nc1ccc(CNC(=O)[C@@H](CO)c2ccccc2)cc1 (racemic) [ST-390, N-(4-guanidinobenzyl)-D,L-tropamide Hydrochloride]

pKi [1]: > 6.00
Compound: N=C(N)Nc1ccc(CNC(=O)C(C(=O)OCc2ccccc2)C23CC4CC(CC(C4)C2)C3)cc1 (centres unmarked) [ST-100]

pKi [1]: 5.85 | pKi [3]: < 3.00 | pKi [4]: < 3.00 | pKi [5]: < 3.00
Compound: N=C(N)Nc1ccc(CNC(=O)C(C(=O)OCc2ccccc2)c2ccccc2)cc1 (centres unmarked) [ST-401, N-(4-guanidinobenzyl) 2-(benzyloxycarbonyl)-2-phenylacetamide hydrochloride]

pKi [1]: > 5.00
Compound: N=C(N)Nc1ccc(CNC(=O)C(C(=O)O)c2ccccc2)cc1 (centres unmarked) [ST-406, N-(4-guanidinobenzyl) 2-(hydroxycarbonyl)-2-phenylacetamide Hydrochloride]

Continued, compound first:

Compound: N=C(N)NC(=O)c1nc(Cl)c(N)nc1N [Amiloride]
formation of lung metastases [6]: prevents the formation of lung metastases

Compound: N=C(N)c1cc2c(I)cccc2s1 [B428, 4-iodobenzo[b]thiophene-2-carboxamidine]
primary tumor growth ([7]; B428 administered together with the antiestrogen tamoxifen): further decrease in primary tumor growth | tumor growth and metastases formation ([7]; syngeneic model of mouse breast cancer): decrease of tumor growth and metastases formation | tumor growth and metastases formation [8]: decrease of tumor growth and metastases formation

Compound: N=C(N)c1ccc(N)cc1 [p-Aminobenzamidine]
growth rate of DU145 tumors [9]: distinct decrease | side effects [9]: negligible
